Like-named read-outs stand apart in the source and are kept apart here.
Legend:
[1] = system: N27 rat dopaminergic cells; assay: Suppression of ferroptosis induced by RSL3 in N27 cells (CellTiter-Glo viability); assay type: cell-based
[2] = Plasma Stability Assay (Examples 6 and 8); assay type: in vitro ADME, mouse; conditions: for half-life at 20 µM: mouse, plasma diluted 1:1 in phosphate buffer, pH 7.4, experiment I, read-out: t1/2 I; for half-life at 20 µM / t1/2 II: plasma half-life; for t1/2 II: experiment II
Experimental: (§1) Mouse plasma (GeneTex) was centrifuged at 3000 rpm for 10 min at 10° C. with the resulting supernatant withdrawn and diluted 1:1 in phosphate buffer pH 7.4. To a 96-well polypropylene plate was added 50% mouse plasma phosphate buffer (195 μL). A stock solution of analog in DMSO (0.8 μL. 5 mM) or fer-1 (positive control) was added to a separate well and the components were warmed to 37° C. for 5 min with gentle agitation. The reaction was initiated with the addition of analog to plasma, and the reaction kept at 37° C. for gentle agitation for the duration of the assay. At selected time points, aliquots (15 μL) were withdrawn from the plate and quenched upon addition to cold methanol (60 μL), containing an internal standard (5 μM) in a separate 96-well polypropylene plate. At the completion of the final time-point, the samples were centrifuged at 4,000 rpm for 5 min at 4° C. The supernatant (40 μL) was withdrawn and transferred to a sample vial with insert. The samples were analyzed by LC-MS. LC-MS analysis was performed on a platform comprising a Thermo Scientific Dionex Ultimate 3000 and a Bruker amaZon SL equipped with an electrospray ionization source controlled by Bruker Hystar 3.2. Chromatographic separation was performed by injecting 5 μL of the sample onto an Agilent Eclipse Plus C18 column (2.1×50 mm, 3.5 μm) maintained at 20° C. The flow rate was maintained at 400 μL/min. The initial flow conditions were 80% solvent A (water containing 0.1% acetic acid) and 20% solvent B (methanol containing 0.1% acetic acid). Solvent B was raised to 80% over 0.50 min by 1.50 min. Solvent B was raised to 100% by 5.00 min and held there for 3.25 min. […] All analogs were detected in positive mode as [M+H]*. The percent compound remaining at each time-point was calculated as the ratio of the integrated compound peak over the internal standard peak and standardized to the t=0 time-point. Values were plotted in GraphPad Prism 9 and fit with a one phase decay.
as §1, with “3000 rpm (1053 g) for 10” for “3000 rpm for 10”, “4,000 rpm (1872 g) for 5” for “4,000 rpm for 5”, “phase decay. […]” for “phase decay.”

[3] = system: modified bacteria sensitive to mutagenic agents; assay type: cell-based; conditions: […] to 82 μM, 3 days
Experimental: The AMES test uses modified bacteria sensitive to mutagenic agents to assess a compound's ability to cause direct DNA mutations. If the tested drug can induce reverse mutational events, it will cause bacteria to revert back to a prototrophic state and grow on media lacking selected nutrients. We tested TH-2-31, TH-4-55-2, and TH-4-67 using the AMES test. CFI-4082 was also included in the test for comparison. Bacteria strains were incubated under exposure to different concentrations of tested compounds for 3 days and collected 144 data points of mutation status at each concentration. The concentration ranged from 5.1 μM to 82 μM, which is the highest local organ concentration of our compounds in the above mice study (FIG. 12).
The Ames test uses modified bacteria sensitive to mutagenic agents to assess a compound's ability to cause direct DNA mutations. If a tested compound can induce revert mutational events, it will cause bacteria to revert back to a prototrophic state and grow on media lacking selected nutrients. We evaluated TH-2-31, TH-4-55-2, and TH-4-67 in the Ames test. We also included PHB4082 in this test. Bacteria strains were incubated under exposure to different concentrations of tested compounds for three days and 144 data points were collected on mutation status across a concentration range from 5.1 μM to 82 μM, which was the highest local organ concentration observed in previous mouse studies.

[4] = Rattus norvegicus, N27, 24 h, Table 13, 20 nM RSL3, treated for 24 hours^d, read-out: IC50
[5] = Rattus norvegicus, N27, 24 h, 20 nM RSL3, 24 hours, separate experiment I, read-out: IC50 I
[6] = Rattus norvegicus, N27, 24 h, 20 nM RSL3, 24 hours, separate experiment II, read-out: IC50 II
[7] = Rattus norvegicus, N27, 24 h, 20 nM RSL3, 24 hours, separate experiment III, read-out: IC50 III
[8] = Rattus norvegicus, N27, 24 h, Table 3, ^d 24 hr treatment, 1,000 cells/well seeded, read-out: IC50
[9] = Rattus norvegicus, N27, 24 h, RSL3 20 nM, 24 hours of treatment, read-out: IC50
[10] = Rattus norvegicus, N27, Table 7, value used for Cmax/IC50, read-out: IC50

SMILES | IC50 ([1]; Rattus norvegicus, N27, Table 3, ^d 24 hr treatment, 1,000 cells/well seeded, read-out: IC50) [nM] | IC50 ([1]; Rattus norvegicus, N27, Table 3, ^e 48 hr treatment, 1,000 cells/well seeded, read-out: IC50) [nM] | stability in mouse plasma, in words [2] | time to full degradation in mouse plasma [2] | IC50 [1, 4] [nM] | potency relative to fer-1, in words ([1]; 20 nM RSL3) | IC50 [1, 5] [nM] | IC50 [1, 6] [nM] | IC50 [1, 7] [nM] | IC50 [1, 8] [nM] | IC50 [1, 9] [nM] | IC50 [1, 10] [nM] | half-life at 20 µM [2] [h] | t1/2 II [2] [h] | mutagenic potential (Ames test result) [3] | EC50 ([1]; Rattus norvegicus, N27, text b573) [nM]
CCOC(=O)c1ccc(NC2CCCCC2)c(N)c1 [Fer-1, Ferrostatin-1, reference compound] | 3.2 | 12.5 | rapidly degraded in mouse plasma | less than 15 min |  |  |  |  |  |  |  |  |  |  |  | 
Cc1noc(-c2ccc(NC3CCCCC3)c(NC3CCCCC3)c2)n1 [PHB4082, N1,N2-dicyclohexyl-4-(3-methyl-1,2,4-oxadiazol-5-yl)benzene-1,2-diamine] |  |  |  |  | 2.6 |  |  |  |  |  |  |  |  |  |  | 
Cc1noc(-c2cnc(NC3CCCCC3)c(NC3CCCCC3)c2)n1 [TH-2-31, N^2,N^3-dicyclohexyl-5-(3-methyl-1,2,4-oxadiazol-5-yl)pyridine-2,3-diamine] |  |  | not metabolized in mouse plasma |  | 3.4 | less potent than fer-1 | 2.6 | 1.4 | 6.1 | 3.4 | < 10 | 3.37 | > 4 | >4 | none of the compounds had mutagenic potential | 
CCC(CC)Nc1cc(-c2nc(C)no2)cnc1NC1CCCCC1 [TH-4-55-2, N^2-cyclohexyl-5-(3-methyl-1,2,4-oxadiazol-5-yl)-N^3-(pentan-3-yl)pyridine-2,3-diamine] |  |  | not metabolized in mouse plasma |  | 2.2 | more potent than fer-1 | 0.8 | 1 | 4.9 | 2.2 | < 10 | 2.23 | > 4 | >4 | none of the compounds had mutagenic potential | 
Cc1noc(-c2cnc(NC3CCCC3)c(NC3CCCC3)c2)n1 [TH-4-67, N^2,N^3-dicyclopentyl-5-(3-methyl-1,2,4-oxadiazol-5-yl)pyridine-2,3-diamine] |  |  | not metabolized in mouse plasma |  | 2.1 | more potent than fer-1 | 1.5 | 1.4 | 3.4 | 2.1 |  | 2.1 | > 4 | >4 | none of the compounds had mutagenic potential | 2
